Results taken from patent US20060040854A1, “Prostate hyperplasia therapy” (Board of Regents, The University of Texas System, priority 2004, published 2006).

Legend:
[1] = tested on: androgen-induced prostatic enlargement in rats; assay: Androgen-induced prostatic enlargement in castrated rats, finasteride vs insulin-6; type: in vivo
Description: The efficacy of insulin-6 in reducing prostate growth is evaluated against finasteride in a comparative therapeutic protocol adapted from Talpur et al,0 Mol Cell Biochem. 2003 August;250(1-2):21-6. Pharmaceutical finasteride and alpha blockers are used to treat symptoms of benign prostatic hyperplasia (BPH) and are known to cause severe adverse reactions. The present study compares the in vivo effects of finasteride on androgen-induced prostatic enlargement in rats with insulin-6. Non-castrated rats, have a mean prostate weight of 124 mg+/−8.8 (S.E.M.) compared to the 24.5 mg+/−1.9 (S.E.M.) of a castrated rat followed under the same regimen (p<0.01). […] In the two treatment groups, castrated rats receiving testosterone are given finasteride or insulin-6.

[2] = tested on: dogs with spontaneous benign prostatic hypertrophy
Description: The effect of insulin-6 on prostate size in benign prostatic hyperplasia is evaluated in a comparative study of finasteride and insulin-6 on size of the prostate gland and semen quality in dogs with benign prostatic hypertrophy in a protocol adapted from Sirinarumitr et al., J Am Vet Med Assoc. 2001 Apr. 15;218(8):1275-80.
Of […] dogs with BPH, five dogs are treated with insulin-6 or finasteride for 16 weeks (0.1 to 0.5 mg/kg [0.05 to 0.23 mg/lb] of body weight, PO, q 24 h); the other 4 receive a placebo. Prostatic diameter, measured radiographically, prostatic volume, measured ultrasonographically, semen quality, and serum DHT and testosterone concentrations are evaluated before and during treatment. After receiving the placebo for 16 weeks, the control dogs are treated with insulin-6 or finasteride for 16 weeks, and evaluations repeated.

[3] = tested on: symptomatic benign prostatic hyperplasia (BPH); assay: Prospective study of finasteride, insulin-6 and combination in symptomatic benign prostatic hyperplasia; type: in vivo; conditions: men with BPH
Description: A prospective study is used to evaluate the therapeutic effect of finasteride, insulin-6, and a combination of finasteride and insulin-6 drugs for symptomatic benign prostatic hyperplasia (BPH). In a protocol adapted from Kuo (Urol Int. 1998;60(2):85-91), 190 men suffering from severe prostatism are subjected to study.
Patients are assessed by IPSS symptom score, digital rectal examination, transrectal sonography of the prostate, uroflowmetry and residual urine. The patients are randomly selected for medical treatment with insulin-6 (n=71), finasteride 5 mg q.d. (n=54), and a combination (n=65). Clinical assessments are carried out before treatment and 3 and 6 months after starting treatment. Patients who can not complete the treatment and those with prostatic cancer are excluded from the final statistics. The quality of life after 6 months of treatment and side effects are also assessed.

Structure (SMILES) | mean prostate weight ([1]; castrated rats given testosterone, S.E.M. 31.7, p<0.01) | semen quality ([2]; dog, in vivo) | semen volume ([2]; dog, in vivo) | serum DHT concentration, mean percentage decrease ([2]; dogs with BPH, 16 weeks, 0.1 to 0.5 mg/kg PO q 24 h) | prostatic diameter, mean percentage decrease ([2]; dogs with BPH, 16 weeks, 0.1 to 0.5 mg/kg PO q 24 h, measured radiographically) | prostatic volume, mean percentage decrease ([2]; dogs with BPH, 16 weeks, 0.1 to 0.5 mg/kg PO q 24 h, measured ultrasonographically) | size of the prostate ([1]; castrated rats receiving testosterone plus treatment) | quality of life after treatment ([3]; after 6 months of treatment) | IPSS symptom score ([3]; at 3 and 6 months) | Maximal flow rate (Qmax) ([3]; at 6 months) | prostatic volume ([3]; at 6 months)
C[C@]12CC[C@H]3[C@@H](CCC4=CC(=O)CC[C@@]43C)[C@@H]1CC[C@@H]2O [testosterone] | 250.0 mg | – | – | – | – | – | – | – | – | – | –
CC(C)(C)NC(=O)[C@H]1CC[C@H]2[C@@H]3CC[C@H]4NC(=O)C=C[C@]4(C)[C@H]3CC[C@]12C [finasteride] | – | do not adversely effect | decrease semen volume | 58% | 20% | 43% | decrease the size of the prostate to roughly the same size as in the non-castrated rats | satisfactory | Improvement in IPSS is noted | significant increase in Qmax | found to decrease
